The IC50 is the concentration that inhibits the measured activity by half. A lower IC50 goes with greater potency.

Structures are written as SMILES.

This test deals with T1, Human HPK1, catalytic domain (Homo sapiens, UniProt Q92918).
T1 construct: purchased Carna
T1 sequence (Q92918 1-346): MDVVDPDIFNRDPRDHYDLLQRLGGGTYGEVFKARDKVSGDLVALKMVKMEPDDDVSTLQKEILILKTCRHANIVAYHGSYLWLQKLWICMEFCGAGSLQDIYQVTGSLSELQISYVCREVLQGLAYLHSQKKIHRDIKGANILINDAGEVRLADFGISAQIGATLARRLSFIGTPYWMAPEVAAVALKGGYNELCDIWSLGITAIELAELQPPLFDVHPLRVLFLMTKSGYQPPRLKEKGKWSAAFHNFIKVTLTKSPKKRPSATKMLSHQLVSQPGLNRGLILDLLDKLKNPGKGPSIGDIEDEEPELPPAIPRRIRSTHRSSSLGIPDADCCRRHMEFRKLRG
In words: HPK1-SLP76 TR-FRET assay. It is filed as biochemical. To be noted: 75 pM HPK1, 10 uM ATP, 10 nM SLP76, 30 min compound pre-incubation. In general terms: Time-resolved FRET reads energy transfer from a long-lived donor to a nearby acceptor.
As to `CC[C@H](C)Cc1ccccc1Nc1nc(Nc2cc3c(cc2OC)CCN(C)C3)ncc1C(N)=O` [Example 13-6, 2-[(6-methoxy-2-methyl-1,2,3,4-tetrahydroisoquinolin-7-yl)amino]-4-({2-[(2S)-2-methylbutyl]phenyl}amino)pyrimidine-5-carboxamide], the IC50 worked out at 597 nM. Take `COc1cc2c(cc1Nc1ncc(C(N)=O)c(Nc3ccccc3CC(C)c3ccccc3)n1)CN(C)CC2` (centres unmarked) [Example 13-7, 2-[(6-methoxy-2-methyl-1,2,3,4-tetrahydroisoquinolin-7-yl)amino]-4-{[2-(2-phenylpropyl)phenyl]amino}pyrimidine-5-carboxamide]: the IC50 came to 215 nM. Consider `COc1cc2c(cc1Nc1ncc(C(N)=O)c(Nc3ccccc3CC3(C#N)CC3)n1)CN(C)CC2` [Example 13-8, 4-({2-[(1-cyanocyclopropyl)methyl]phenyl}amino)-2-[(6-methoxy-2-methyl-1,2,3,4-tetrahydroisoquinolin-7-yl)amino]pyrimidine-5-carboxamide], for which the 50% inhibitory concentration (IC50) worked out at 230 nM. On to `COc1cc2c(cc1Nc1ncc(C(N)=O)c(Nc3ccccc3C[C@H](O)c3ccccc3)n1)CN(C)CC2` [Example 13-9, 4-({2-[(2S)-2-hydroxy-2-phenylethyl]phenyl}amino)-2-[(6-methoxy-2-methyl-1,2,3,4-tetrahydroisoquinolin-7-yl)amino]pyrimidine-5-carboxamide], for which the IC50 is 312 nM. Turning to `COc1cc2c(cc1Nc1ncc(C(N)=O)c(Nc3ccccc3C[C@@H](O)c3ccccc3)n1)CN(C)CC2` [Example 13-10, 4-({2-[(2R)-2-hydroxy-2-phenylethyl]phenyl}amino)-2-[(6-methoxy-2-methyl-1,2,3,4-tetrahydroisoquinolin-7-yl)amino]pyrimidine-5-carboxamide], the IC50 came to 326 nM. For `COc1cc2c(cc1Nc1ncc(C(N)=O)c(Nc3ccccc3CC3(C#N)CCC3)n1)CN(C)CC2` [Example 13-11, 4-({2-[(1-cyanocyclobutyl)methyl]phenyl}amino)-2-[(6-methoxy-2-methyl-1,2,3,4-tetrahydroisoquinolin-7-yl)amino]pyrimidine-5-carboxamide], the midpoint of inhibition, the IC50, lay at 0.4 nM. Turning to `COc1cc2c(cc1Nc1ncc(C(N)=O)c(Nc3c(F)cccc3C3CCOCC3)n1)CN(C)CC2` [Example 13-12, 4-{[2-fluoro-6-(oxan-4-yl)phenyl]amino}-2-[(6-methoxy-2-methyl-1,2,3,4-tetrahydroisoquinolin-7-yl)amino]pyrimidine-5-carboxamide], the midpoint of inhibition, the IC50, lay at 0.12 nM.

`COc1cc2c(cc1Nc1ncc(C(N)=O)c(Nc3ccccc3C3CCOCC3)n1)CN(C)CC2` [Example 13-13, 2-[(6-methoxy-2-methyl-1,2,3,4-tetrahydroisoquinolin-7-yl)amino]-4-{[2-(oxan-4-yl)phenyl]amino}pyrimidine-5-carboxamide] had a half-inhibitory concentration (IC50) of 1.09 nM. `COc1cc2c(cc1Nc1ncc(C(N)=O)c(Nc3ccccc3-c3cncs3)n1)CN(C)CC2` [Example 14-1, 2-[(6-methoxy-2-methyl-1,2,3,4-tetrahydroisoquinolin-7-yl)amino]-4-{[2-(1,3-thiazol-5-yl)phenyl]amino}pyrimidine-5-carboxamide] gave a 50% inhibitory concentration (IC50) of 2.75 nM. `COc1cc2c(cc1Nc1ncc(C(N)=O)c(Nc3ccccc3-c3nccs3)n1)CN(C)CC2` [Example 14-2, 2-[(6-methoxy-2-methyl-1,2,3,4-tetrahydroisoquinolin-7-yl)amino]-4-{[2-(1,3-thiazol-2-yl)phenyl]amino}pyrimidine-5-carboxamide]: the IC50 came out at 0.26 nM. In turn, `COc1cc2c(cc1Nc1ncc(C(N)=O)c(Nc3ccccc3-c3ncco3)n1)CN(C)CC2` [Example 14-3, 2-[(6-methoxy-2-methyl-1,2,3,4-tetrahydroisoquinolin-7-yl)amino]-4-{[2-(1,3-oxazol-2-yl)phenyl]amino}pyrimidine-5-carboxamide] displayed an IC50 of 0.64 nM.

Take `COc1cc2c(cc1Nc1ncc(C(N)=O)c(Nc3cccc4c3CCN(C(C)=O)C4)n1)CN(C)CC2` [Example 15-1, 4-[(2-acetyl-1,2,3,4-tetrahydroisoquinolin-5-yl)amino]-2-[(6-methoxy-2-methyl-1,2,3,4-tetrahydroisoquinolin-7-yl)amino]pyrimidine-5-carboxamide]: the concentration for half-maximal inhibition (IC50) amounted to 0.48 nM. For the compound `COc1cc2c(cc1Nc1ncc(C(N)=O)c(Nc3cccc4c3CCN(C)C4)n1)CN(C)CC2` [Example 16-1, 2-((6-methoxy-2-methyl-1,2,3,4-tetrahydroisoquinolin-7-yl)amino)-4-((2-methyl-1,2,3,4-tetrahydroisoquinolin-5-yl)amino)pyrimidine-5-carboxamide], inhibition was half-maximal at 0.09 nM (IC50).

`COc1cc2c(cc1Nc1ncc(C(=O)NN)c(Nc3ccccc3)n1)CN(C)CC2` [Example 18-1, 2-((6-Methoxy-2-methyl-1,2,3,4-tetrahydroisoquinolin-7-yl)amino)-4-(phenylamino)pyrimidine-5-carbohydrazide] gave an IC50 of 23.6 nM. In the case of `COc1cc2c3cc1Nc1ncc(C(N)=O)c(n1)Nc1c(F)cc(cc1F)CCCCCN(CC2)C3` [Example 19-1, 52,56-Difluoro-16-methoxy-11,12,13,14-tetrahydro-2,4-diaza-1(7,2)-isoquinolina-3(2,4)-pyrimidina-5(1,4)-benzenacyclodecaphane-35-carboxamide], the midpoint of inhibition, the IC50, lay at 3.01 nM.

`COc1cc2c(cc1Nc1ncc(C(N)=O)c(Nc3c(F)cccc3C(F)(F)F)n1)CN(C)CC21CC1` [Example 21-1, 4-((2-fluoro-6-(trifluoromethyl)phenyl)amino)-2-((6′-methoxy-2′-methyl-2′,3′-dihydro-1′H-spiro[cyclopropane-1,4′-isoquinolin]-7′-yl)amino)pyrimidine-5-carboxamide] gave an IC50 of 0.21 nM. As for `CCC1[C@@H](C(=O)Nc2ncc(C(N)=O)c(Nc3ccccc3Br)n2)[C@@H]1c1cnn(C)c1` (stereo partly drawn) [Example 22-2, 4-[(2-bromophenyl)amino]-2-{[(1R,3R)-2-ethyl-3-(1-methyl-1H-pyrazol-4-yl)cyclopropane-1-carbonyl]amino}pyrimidine-5-carboxamide], the IC50 came to 468 nM. The result for `CC(C)N1CCn2nc(Nc3ncc(C(N)=O)c(Nc4cccc5c4CCNC5)n3)cc2CC1=O` [Example 24-1, 2-((6-isopropyl-5-oxo-5,6,7,8-tetrahydro-4H-pyrazolo[1,5-d][1,4]diazepin-2-yl)amino)-4-((1,2,3,4-tetrahydroisoquinolin-5-yl)amino)pyrimidine-5-carboxamide] reads 5.05 nM; that for `NC(=O)c1cnc(Nc2ccccc2)nc1Nc1cccc2c1CCNC2=O` [Example 25-1, 4-[(1-oxo-1,2,3,4-tetrahydroisoquinolin-5-yl)amino]-2-(phenylamino)pyrimidine-5-carboxamide], 24.4 nM. `CC(C)(C#N)c1cccc(Nc2ncc(C(N)=O)c(Nc3cccc4c3CCNC4=O)n2)c1` [Example 25-3, 2-{[3-(2-cyanopropan-2-yl)phenyl]amino}-4-[(1-oxo-1,2,3,4-tetrahydroisoquinolin-5-yl)amino]pyrimidine-5-carboxamide] returned an IC50 of 1.14 nM.

With `N#CC1(c2cccc(Nc3ncc(C(N)=O)c(Nc4cccc5c4CCNC5=O)n3)c2)CC1` [Example 25-4, 2-{[3-(1-cyanocyclopropyl)phenyl]amino}-4-[(1-oxo-1,2,3,4-tetrahydroisoquinolin-5-yl)amino]pyrimidine-5-carboxamide], the IC50 came to 2.78 nM.

Turning to `NC(=O)c1cnc(Nc2ccc(F)cc2)nc1Nc1cccc2c1CCNC2=O` [Example 25-5, 2-[(4-fluorophenyl)amino]-4-[(1-oxo-1,2,3,4-tetrahydroisoquinolin-5-yl)amino]pyrimidine-5-carboxamide], it took 217 nM to reach half-maximal inhibition (IC50).

The compound `NC(=O)c1cnc(Nc2ccc(F)c(Cl)c2)nc1Nc1cccc2c1CCNC2=O` [Example 25-6, 2-[(3-chloro-4-fluorophenyl)amino]-4-[(1-oxo-1,2,3,4-tetrahydroisoquinolin-5-yl)amino]pyrimidine-S-carboxamide] displayed a 50% inhibitory concentration (IC50) of 580 nM. `NC(=O)c1cnc(Nc2ccc(C(F)(F)F)cc2)nc1Nc1cccc2c1CCNC2=O` [Example 25-7, 4-[(1-oxo-1,2,3,4-tetrahydroisoquinolin-5-yl)amino]-2-{[4-(trifluoromethyl)phenyl]amino}pyrimidine-5-carboxamide] came in with an IC50 of 474 nM. On to `C[C@@H](Nc1ncc(C(N)=O)c(Nc2cccc3c2CCNC3=O)n1)c1ccc(F)cc1` [Example 25-8, 2-{[(1R)-1-(4-fluorophenyl)ethyl]amino}-4-[(1-oxo-1,2,3,4-tetrahydroisoquinolin-5-yl)amino]pyrimidine-5-carboxamide], for which the midpoint of inhibition, the IC50, lay at 176 nM. `CCc1ccc(Nc2ncc(C(N)=O)c(Nc3cccc4c3CCNC4=O)n2)cc1` [Example 25-9, 2-[(4-ethylphenyl)amino]-4-[(1-oxo-1,2,3,4-tetrahydroisoquinolin-5-yl)amino]pyrimidine-5-carboxamide] showed a half-maximal inhibitory concentration (IC50) of 12.1 nM. Next, `NC(=O)c1cnc(Nc2cccc(F)c2)nc1Nc1cccc2c1CCNC2=O` [Example 25-10, 2-[(3-fluorophenyl)amino]-4-[(1-oxo-1,2,3,4-tetrahydroisoquinolin-5-yl)amino]pyrimidine-5-carboxamide]: 1.22 nM. On to `Cc1cccc(Nc2ncc(C(N)=O)c(Nc3cccc4c3CCNC4=O)n2)c1C` [Example 25-11, 2-[(2,3-dimethylphenyl)amino]-4-[(1-oxo-1,2,3,4-tetrahydroisoquinolin-5-yl)amino]pyrimidine-5-carboxamide], for which the IC50 turned out to be 71 nM. The compound `Cc1cc(Nc2ncc(C(N)=O)c(Nc3cccc4c3CCNC4=O)n2)ccc1C1CC1` [Example 25-12, 2-[(4-cyclopropyl-3-methylphenyl)amino]-4-[(1-oxo-1,2,3,4-tetrahydroisoquinolin-5-yl)amino]pyrimidine-5-carboxamide] displayed a concentration for half-maximal inhibition (IC50) of 0.57 nM.

For the origin of these results see patent US20230416225A1, “DIAMINOPYRIMIDINE CARBOXAMIDE INHIBITORS OF HPK1” (MERCK SHARP & DOHME LLC, priority 2020, published 2023).
